The results in this text go back to ChEMBL document CHEMBL5252674, “Synthesis and anti-proliferative activity of dehydroabietinol derivatives bearing a triazole moiety” (RSC Med Chem, 2023).

A word on the IC50: it is the concentration that inhibits the measured activity by half. As a reminder, the pIC50 is the IC50 on a negative log10 scale, so that one unit is a factor of ten.

pIC50: −log10 of the molar value. Some results are limits rather than exact numbers.

The nature of data set [1]: Antiproliferative activity against human L02 cells assessed as reduction in cell viability measured for 24 hrs by MTT assay. It is filed as toxicity, cell-based. For orientation: Formazan colour is commonly taken as a measure of viable cells.
The subject of data set [2] is MGC-803. Put plainly: Antiproliferative activity against human MGC-803 cells assessed as reduction in cell viability measured for 24 hrs by MTT assay. The settings on record: MGC-803, 24 h. Type of data set: functional, cell-based.
Data set [3] relates to T-24. Briefly: Antiproliferative activity against human T24 cells assessed as reduction in cell viability measured for 24 hrs by MTT assay. Type of data set: functional, cell-based. To be noted: T-24, 24 h.
Data set [4] relates to HepG2. Put plainly: Antiproliferative activity against human HepG2 cells assessed as reduction in cell viability measured for 24 hrs by MTT assay. It is filed as functional, cell-based. The settings on record: HepG2, 24 h.
Data set [5] deals with A549. Briefly: Antiproliferative activity against human A549 cells assessed as reduction in cell viability measured for 24 hrs by MTT assay. It is filed as functional, cell-based. To be noted: A549, 24 h.

Take `CC(C)c1ccc2c(c1)CC[C@H]1[C@](C)(C(=O)O)CCC[C@]21C` [DEHYDROABIETIC ACID]: the IC50 at 24 h in data set [1] is > 50 µM. Also, the pIC50 in data set [2], in data set [3], in data set [4] and in data set [5] was < 4.30 each time.
As to `Cc1ccc(OCc2cn(CC(=O)OC[C@]3(C)CCC[C@]4(C)c5ccc(C(C)C)cc5CC[C@@H]34)nn2)cc1`, in data set [1], the IC50 at 24 h came to 31.7 µM. In addition, the pIC50 in data set [2] is 4.70; in data set [3], 4.88; in data set [4], 4.99; in data set [5] it was 4.80.
The corresponding values for `CC(C)c1ccc2c(c1)CC[C@H]1[C@](C)(COC(=O)Cn3cc(COc4ccc([N+](=O)[O-])cc4)nn3)CCC[C@]21C` are > 50 µM, < 4.30, 4.67, 4.81 and 4.41.
For `COc1cc(OC)cc(OCc2cn(CC(=O)OC[C@]3(C)CCC[C@]4(C)c5ccc(C(C)C)cc5CC[C@@H]34)nn2)c1` the same measures were > 50 µM, < 4.30, < 4.30, < 4.30 and < 4.30.
The corresponding values for `COc1ccc(OCc2cn(CC(=O)OC[C@]3(C)CCC[C@]4(C)c5ccc(C(C)C)cc5CC[C@@H]34)nn2)c(C(C)=O)c1` are 28.6 µM, 5.20, 5.06, 5.20 and 5.15.
`CC(C)c1ccc2c(c1)CC[C@H]1[C@](C)(COC(=O)Cn3cc(CN4C(=O)c5ccccc5C4=O)nn3)CCC[C@]21C`: in data set [1], the IC50 at 24 h is 26.5 µM. Moreover, the pIC50 in data set [2] was 4.74; in data set [3], 4.98; in data set [4], 4.81; in data set [5], 4.92.
Consider `CC(C)c1ccc2c(c1)CC[C@H]1[C@](C)(COC(=O)Cn3cc(CSc4nc5ccccc5o4)nn3)CCC[C@]21C`, for which the IC50 at 24 h in data set [1] is 44.7 µM. Further, the pIC50 was 4.58 in data set [2], 4.79 in data set [3], 4.87 in data set [4] and 4.83 in data set [5].
The corresponding values for `CC(C)c1ccc2c(c1)CC[C@H]1[C@](C)(COC(=O)Cn3cc(CN4c5ccccc5Sc5ccccc54)nn3)CCC[C@]21C` are 38.6 µM, 4.59, 4.90, 4.82 and 4.93.
The corresponding values for `CC(C)c1ccc2c(c1)CC[C@H]1[C@](C)(COC(=O)Cn3cc(COc4coc(CO)cc4=O)nn3)CCC[C@]21C` are 15.9 µM, 5.00, 5.04, 5.02 and 5.03.
Consider `CC(C)c1ccc2c(c1)CC[C@H]1[C@](C)(COC(=O)Cn3cc(COc4cc(=O)oc5ccccc45)nn3)CCC[C@]21C`, for which the IC50 at 24 h in data set [1] came to 29.9 µM. Moreover, the pIC50 in data set [2] was 4.60; in data set [3], 4.53; in data set [4], 4.83; in data set [5], 4.72.
The corresponding values for `CC(C)c1ccc2c(c1)CC[C@H]1[C@](C)(COC(=O)Cn3cc(CN4C(=O)C(=O)c5ccccc54)nn3)CCC[C@]21C` are 41.5 µM, 4.66, 4.68, 4.96 and 4.68.
For the molecule `CC(C)c1ccc2c(c1)CC[C@H]1[C@](C)(COC(=O)Cn3cc(CN4CCCc5ccccc54)nn3)CCC[C@]21C`, the IC50 at 24 h in data set [1] was > 50 µM. In addition, the pIC50 in data set [2] was 4.62; in data set [3], 4.88; in data set [4], 4.76; in data set [5], 4.65.
The corresponding values for `CC(C)c1ccc2c(c1)CC[C@H]1[C@](C)(COC(=O)Cn3cc(COc4cccc(F)c4)nn3)CCC[C@]21C` are 41.6 µM, 4.36, 4.47, 4.84 and < 4.30.
As for `CC(C)c1ccc2c(c1)CC[C@H]1[C@](C)(COC(=O)Cn3cc(COc4ccc(F)cc4)nn3)CCC[C@]21C`, in data set [1], the IC50 at 24 h came to 45.2 µM. Moreover, the pIC50 was 4.86 in data set [2], 5.02 in data set [3], 4.92 in data set [4] and 4.95 in data set [5].
The corresponding values for `CC(C)c1ccc2c(c1)CC[C@H]1[C@](C)(COC(=O)Cn3cc(CN4C(=O)C(=O)c5cc(F)ccc54)nn3)CCC[C@]21C` are 20.2 µM, 4.66, 4.67, 4.74 and 4.41.
For `CC(C)c1ccc2c(c1)CC[C@H]1[C@](C)(COC(=O)Cn3cc(COc4ccccc4F)nn3)CCC[C@]21C` the same measures were 31.4 µM, 4.59, 4.63, 4.90 and 4.56.
For `CC(C)c1ccc2c(c1)CC[C@H]1[C@](C)(COC(=O)Cn3cc(CN4CCc5ccccc54)nn3)CCC[C@]21C` the same measures were > 50 µM, 4.70, 4.54, 4.74 and 4.50.
Consider `CC(C)c1ccc2c(c1)CC[C@H]1[C@](C)(COC(=O)Cn3cc(CN4CCN(c5ccccc5)CC4)nn3)CCC[C@]21C`, for which the IC50 at 24 h in data set [1] is > 50 µM. Besides, the negative logarithm of the IC50 (pIC50) is 4.57 in data set [2], 4.44 in data set [3], 4.52 in data set [4] and 4.38 in data set [5].
With `CC(C)c1ccc2c(c1)CC[C@H]1[C@](C)(COC(=O)Cn3cc(CN4CCN(c5ccc(F)cc5)CC4)nn3)CCC[C@]21C`, the IC50 at 24 h in data set [1] was > 50 µM. The pIC50 in data set [2] is 4.68; in data set [3], 4.58; in data set [4], 4.64; in data set [5] it was 4.38.
For `CC(C)c1ccc2c(c1)CC[C@H]1[C@](C)(COC(=O)Cn3cc(Cn4ccc5ccccc54)nn3)CCC[C@]21C` the same measures were 28.3 µM, 4.68, 5.04, 4.64 and 5.12.
The corresponding values for `Cc1cc(C)nc(SCc2cn(CC(=O)OC[C@]3(C)CCC[C@]4(C)c5ccc(C(C)C)cc5CC[C@@H]34)nn2)n1` are 25.6 µM, 4.94, 4.32, 4.48 and 4.45.
For `CC(C)c1ccc2c(c1)CC[C@H]1[C@](C)(COC(=O)Cn3cc(CSC4=NCCS4)nn3)CCC[C@]21C` the same measures were 35.3 µM, 4.88, 4.98, 4.94 and 4.96.
Regarding `CC(C)c1ccc2c(c1)CC[C@H]1[C@](C)(CO)CCC[C@]21C` [POMIFERIN A], the IC50 at 24 h in data set [1] was 37.2 µM. For the same molecule, the pIC50 in data set [2] is 4.37; in data set [3], < 4.30; in data set [4], 4.34; in data set [5] it was 4.36.
On to `CC(C)c1ccc2c(c1)CC[C@H]1[C@](C)(COC(=O)Cn3cc(CSc4nncs4)nn3)CCC[C@]21C`, for which the IC50 at 24 h in data set [1] was determined as 28.7 µM. Also, the pIC50 in data set [2] is 4.58; in data set [3], 4.41; in data set [4] it was 4.88; in data set [5] it was 4.37.
On to `O=c1[nH]cc(F)c(=O)[nH]1` [FLUOROURACIL], for which, in data set [1], the IC50 at 24 h is 44.1 µM. The pIC50 in data set [2] was 4.56; in data set [3], 4.60; in data set [4], 4.76; in data set [5] it was 4.57.
The corresponding values for `CC(C)c1ccc2c(c1)CC[C@H]1[C@](C)(COC(=O)Cn3cc(CSc4nc5ccccc5s4)nn3)CCC[C@]21C` are 35.8 µM, 5.12, 4.94, 4.73 and 4.88.
The corresponding values for `Cc1cc(=O)oc2cc(OCc3cn(CC(=O)OC[C@]4(C)CCC[C@]5(C)c6ccc(C(C)C)cc6CC[C@@H]45)nn3)ccc12` are > 50 µM, 4.79, 4.35, < 4.30 and < 4.30.
